This passage reports IC50 results from ChEMBL document CHEMBL5053523, “Design, synthesis, and structure-activity relationship of PD-1/PD-L1 inhibitors with a benzo[d]isoxazole scaffold” (Bioorg Med Chem Lett, 2021).

The term IC50 denotes the concentration that inhibits the measured activity by half. Low values mean inhibition by little substance, high ones a need for much substance.

One assay deals with T1, Programmed cell death protein 1/Programmed cell death 1 ligand 1 (Homo sapiens, UniProt Q15116+Q9NZQ7). Put plainly: Inhibition of PD-1/PDL1 protein-protein interaction (unknown origin) by HTRF assay. The assay is classed as protein-complex assay. (In TR-FRET formats the signal depends on donor and acceptor labels being close together.)
T1 sequence (Q15116 whole entry): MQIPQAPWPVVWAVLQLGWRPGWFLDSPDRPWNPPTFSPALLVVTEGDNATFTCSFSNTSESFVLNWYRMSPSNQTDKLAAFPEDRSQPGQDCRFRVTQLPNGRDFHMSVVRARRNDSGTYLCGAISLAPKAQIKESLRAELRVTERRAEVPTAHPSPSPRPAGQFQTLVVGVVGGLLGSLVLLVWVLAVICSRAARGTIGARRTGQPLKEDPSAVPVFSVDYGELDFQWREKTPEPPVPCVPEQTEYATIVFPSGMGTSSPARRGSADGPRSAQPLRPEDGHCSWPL
T1 sequence (Q9NZQ7 whole entry): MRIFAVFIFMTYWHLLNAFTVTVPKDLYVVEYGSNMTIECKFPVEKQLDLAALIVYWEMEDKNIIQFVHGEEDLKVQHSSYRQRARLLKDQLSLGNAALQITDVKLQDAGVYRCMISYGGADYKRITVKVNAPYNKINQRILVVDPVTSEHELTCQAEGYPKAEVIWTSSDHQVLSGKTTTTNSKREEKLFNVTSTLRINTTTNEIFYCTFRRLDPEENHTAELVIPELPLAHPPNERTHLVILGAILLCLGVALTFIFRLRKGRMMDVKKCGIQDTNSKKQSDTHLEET
In the case of `CC(=O)NCCNCc1ccc2c(Nc3cccc(-c4ccccc4)c3Cl)noc2c1`, the 50% inhibitory concentration (IC50) amounted to 2030 nM. The same measure, in the same setting: the figure for `O=C(O)[C@H](CO)NCc1ccc2onc(Nc3cccc(-c4ccc5c(c4)OCCO5)c3Cl)c2c1` is 51.3 nM. `O=C(O)C1CCCN1Cc1ccc2onc(Nc3cccc(-c4ccccc4)c3Cl)c2c1` (racemic) showed an IC50 of 85.8 nM. On the same count and under the same terms, the figure for `O=C(O)CNCc1ccc2c(Nc3cccc(-c4ccccc4)c3Cl)noc2c1` is 718 nM; for `O=C(O)C1CCCCN1Cc1ccc2onc(Nc3cccc(-c4ccccc4)c3Cl)c2c1` (racemic) it is 71.2 nM; for `O=C(O)C1CCN(Cc2ccc3onc(Nc4cccc(-c5ccccc5)c4Cl)c3c2)CC1` it is 610 nM. `O=C(O)CNCc1ccc2onc(Nc3cccc(-c4ccccc4)c3Cl)c2c1`: the IC50 turned out to be 30.5 nM. Against the preceding molecule, the IC50 is about 20-fold lower. Still for that read-out and setting: with `O=C(O)CNCc1ccc2c(Nc3cccc(-c4ccc5c(c4)OCCO5)c3Cl)noc2c1` the figure was 383 nM; with `OC1CCN(Cc2ccc3c(Nc4cccc(-c5ccc6c(c5)OCCO6)c4Cl)noc3c2)C1` (racemic), 1680 nM; with `O=C(O)C1CCN1Cc1ccc2onc(Nc3cccc(-c4ccccc4)c3Cl)c2c1` (racemic), 480 nM. Same read-out and setting: the figure for `O=C(O)[C@H](CO)NCc1ccc2onc(Nc3cccc(-c4ccccc4)c3Cl)c2c1` is 26.8 nM. Turning to `O=C(O)[C@H](CO)NCc1ccc2c(Nc3cccc(-c4ccccc4)c3Cl)noc2c1`, the IC50 was 2390 nM. Turning to `OCCNCc1ccc2onc(Nc3cccc(-c4ccccc4)c3Cl)c2c1`, 803 nM corresponded to half-maximal inhibition (IC50). Compared with the last molecule, the IC50 is about 3-fold lower.

For the molecule `CC(=O)NCCNCc1ccc2onc(Nc3cccc(-c4ccccc4)c3Cl)c2c1`, inhibition was half-maximal at 193 nM (IC50). Compared with the last molecule, the IC50 is about 4.2-fold lower. Molecule `OCCNCc1ccc2c(Nc3cccc(-c4ccccc4)c3Cl)noc2c1` displayed an IC50 of 6490 nM. On the same count and under the same terms, the figure for `O=C(O)C1CCCN(Cc2ccc3onc(Nc4cccc(-c5ccccc5)c4Cl)c3c2)C1` (racemic) is 92.8 nM; for `CC(=O)NCCNCc1ccc2c(Nc3cccc(-c4ccc5c(c4)OCCO5)c3Cl)noc2c1` it is 834 nM. The same measure, in the same setting: with `OCCNCc1ccc2onc(Nc3cccc(-c4ccc5c(c4)OCCO5)c3Cl)c2c1` the figure was 3020 nM.

In turn, `O=C(O)CNCc1ccc2onc(Nc3cccc(-c4ccc5c(c4)OCCO5)c3Cl)c2c1` had a half-maximal inhibitory concentration (IC50) of 91.6 nM. In turn, `OC1CCN(Cc2ccc3onc(Nc4cccc(-c5ccc6c(c5)OCCO6)c4Cl)c3c2)C1` (racemic) returned an IC50 of 1280 nM. On the same count and under the same terms, the figure for `O=C(O)[C@H](CO)NCc1ccc2c(Nc3cccc(-c4ccc5c(c4)OCCO5)c3Cl)noc2c1` is 1720 nM; for `COC(=O)[C@H](CO)NCc1ccc2onc(Nc3cccc(-c4ccccc4)c3Cl)c2c1` it is 1620 nM; for `O=C(O)C1CCN(Cc2ccc3onc(Nc4cccc(-c5ccccc5)c4Cl)c3c2)C1` (racemic) it is 452 nM.

`OC1CCN(Cc2ccc3c(Nc4cccc(-c5ccccc5)c4Cl)noc3c2)C1` (racemic): half-maximal inhibition (IC50) required 1490 nM. In turn, `OC1CCN(Cc2ccc3onc(Nc4cccc(-c5ccccc5)c4Cl)c3c2)C1` (racemic) had a 50% inhibitory concentration (IC50) of 464 nM. `O=C(O)C1CN(Cc2ccc3onc(Nc4cccc(-c5ccccc5)c4Cl)c3c2)C1` came in with an IC50 of 364 nM.

The molecule `CC(=O)NCCNCc1ccc2onc(Nc3cccc(-c4ccc5c(c4)OCCO5)c3Cl)c2c1` gave an IC50 of 438 nM.

`OCCNCc1ccc2c(Nc3cccc(-c4ccc5c(c4)OCCO5)c3Cl)noc2c1`: the IC50 was 756 nM. Against the preceding molecule, the IC50 is about 1.7-fold higher.

The target in the next assay is T1, Programmed cell death protein 1/Programmed cell death 1 ligand 1. In words: Inhibition of PD-1/PDL1 protein-protein interaction (unknown origin). It is filed as protein-complex assay.
For the molecule `Cc1c(/C=C/c2c(Cl)cc(CNC(C)(CO)C(=O)O)cc2C(F)(F)F)cccc1-c1ccc2c(c1)OCCO2` (stereo unspecified), the IC50 was found to be 18 nM. The same measure, in the same setting: the figure for `Cc1c(NC(=O)c2cccc(CNCCO)n2)cccc1-c1ccccc1` is no more than 10 nM; for `N#Cc1cncc(COc2cc(OC3CCc4c(-c5ccccc5)cccc43)c(Cl)cc2CN[C@@H](CO)C(=O)O)c1` (stereo partly specified) it is less than 100 nM.
